{
  "source": "patent US20250320362A1",
  "about": "“Suspensions and Solutions of Dyes For Colored Coatings” (Northeastern University, priority 2022, published 2025)",
  "format_in_all_cases": "physicochemical",
  "key": {"[1]": {"assay": "xanthommatin solubility in water-based polyurethane", "details": "pigment added as suspension in water or solution in MES buffer; Rust-Oleum 6711; judged by absence of solid after centrifugation", "procedure": "Evaluation of xanthommatin solubility in water-based polyurethane: Two quantities of solid xanthommatin, corresponding to either 0.2 or 1.6 mg of xanthommatin, were dissolved or dispersed in 0.3 mL of MES buffer (0.1 M, pH 5.5) or deionized water, and added to 0.27 g fractions of water-based polyurethane paint (Rust-Oleum 6711). Pigment-free samples were prepared as controls. After mixing, these samples were centrifuged (15,000 g, 5 minutes), and imaged using a camera (FIG. 1D)."}, "[2]": {"assay": "pH-dependent xanthommatin solubility in water", "details": "solid pigment suspended in acidic to alkaline water (pH 2-12), agitation, then centrifugation", "procedure": "Evaluation of pH-dependent xanthommatin solubility: Fractions of solid xanthommatin corresponding to 1 mg of starting material were dispersed in 1 mL of filtered water adjusted to pH 2.01, 4.00, 6.00, 7.00, 8.01, 10.01, or 12.00. Samples were mixed by pipetting, centrifuged at 15,000 g for 5 minutes, and imaged with a camera to record the mass of undissolved material (FIG. 1C, top panel). Each sample was then diluted to 1.5 mL with water adjusted to its respective pH, mixed by vortexing, sonicated for 5 minutes, centrifuged at 15,000 g for 5 minutes, and imaged again (FIG. 1C, bottom panel)."}, "[3]": {"assay": "solubility of xanthommatin in carrier liquids (water, MES buffer)", "details": "oxidized xanthommatin"}},
  "data": [
    {"smiles": "NC(CC(=O)c1cccc2oc3cc(=O)c4[nH]c(C(=O)O)cc(=O)c4c-3nc12)C(=O)O", "note": "(centres unmarked) [xanthommatin, 11-(3-amino-3-carboxypropanoyl)-1,5-dioxo-4H-pyrido[3,2-a]phenoxazine-3-carboxylic acid]", "values": [
      {"measurement": "solubility in water-based polyurethane paint base", "setting": "[1]", "result": "fully soluble"},
      {"measurement": "solubility in water, acidic conditions", "setting": "[2]; acidic conditions", "result": "sparingly soluble/insoluble"},
      {"measurement": "solubility in water, basic conditions", "setting": "[2]; basic conditions", "result": "most soluble"},
      {"measurement": "solubility in MES buffer (carrier liquid)", "setting": "[3]; MES buffer", "result": "fully soluble"},
      {"measurement": "solubility in water (carrier liquid)", "setting": "[3]; water", "result": "only slightly soluble"}
    ]}
  ]
}
